These results are taken from patent US4668514A, “Penicillin derivatives” (Taiho Pharmaceutical Company Limited, priority 1983, dated 1987).

The target in the assay is penicillinase (β-lactamase) derived from Bacillus sp. The assay can be described thus: β-lactamase inhibitory activity measured by microiodometry using penicillin G as substrate. The class given is biochemical. Particulars: read-out: 50% Inhibitory Concentration. As to the method:
Test for β-lactamase inhibitory activity
The inhibitory activity against penicillinase (β-lactamase) derived from Bacillus sp. was measured by microiodometry Tanpakushitsu Kakusan Koso (Protein Nucleic Acid Enzyme), vol. 23, No. 5, pp 391 to 400 (1978) using penicillin G as a substrate.
Take `CCNC(=O)c1cn(C[C@@]2(C)[C@H](C(=O)O)N3C(=O)C[C@H]3S2(=O)=O)nn1` [Compound 29, sodium 2β-(4-ethylcarbamoyl-1,2,3-triazol-1-yl)methyl-2α-methylpenam-3α-carboxylate 1,1-dioxide]: the IC50 turned out to be 20 nM.
Take `C[C@]1(Cn2nnc(CO)c2CO)[C@H](C(=O)O)N2C(=O)C[C@H]2S1(=O)=O` [Compound 50, sodium 2β-(4,5-dihydroxymethyl-1,2,3-triazol-1-yl)methyl-2α-methylpenam-3α-carboxylate 1,1-dioxide]: the IC50 stood at 2000 nM.
As to `C[C@]1(Cn2cc(-c3ccccc3)nn2)[C@H](C(=O)O)N2C(=O)C[C@H]2S1(=O)=O` [Compound 14, sodium 2β-(4-phenyl-1,2,3-triazol-1-yl)methyl-2α-methylpenam-3α-carboxylate 1,1-dioxide], the IC50 is 40 nM.
Turning to `CCCCc1nnn(C[C@@]2(C)[C@H](C(=O)O)N3C(=O)C[C@H]3S2(=O)=O)c1CCCC` [Compound 5, sodium 2β-(4,5-di-n-butyl-1,2,3-triazol-1-yl)methyl-2α-methylpenam-3α-carboxylate 1,1-dioxide], the IC50 was 3000 nM.
As to `C[C@]1(Cn2nnc(C(N)=O)c2C(N)=O)[C@H](C(=O)O)N2C(=O)C[C@H]2S1(=O)=O` [Compound 31, sodium 2β-(4,5-dicarbamoyl-1,2,3-triazol-1-yl)methyl-2α-methylpenam-3α-carboxylate 1,1-dioxide], the IC50 is 130 nM.
Consider `CCOC(=O)c1c(-c2ccccc2)nnn1C[C@@]1(C)[C@H](C(=O)O)N2C(=O)C[C@H]2S1(=O)=O` [Compound 45, sodium 2β-(5-ethoxycarbonyl-4-phenyl-1,2,3-triazol-1-yl)methyl-2α-methylpenam-3α-carboxylate 1,1-dioxide], for which the IC50 was determined as 100 nM.
The result for `C[C@]1(Cn2cc(N)nn2)[C@H](C(=O)O)N2C(=O)C[C@H]2S1(=O)=O` [Compound 55, 2β-(4-amino-1,2,3-triazol-1-yl)methyl-2α-methylpenam-3α-carboxylic acid 1,1-dioxide] reads 700 nM; that for `CCOC(=O)c1nnn(C[C@@]2(C)[C@H](C(=O)O)N3C(=O)C[C@H]3S2(=O)=O)c1-c1ccccc1` [Compound 44, sodium 2β-(4-ethoxycarbonyl-5-phenyl-1,2,3-triazol-1-yl)methyl-2α-methylpenam-3α-carboxylate 1,1-dioxide], 400 nM; that for `C[C@]1(Cn2nncc2-c2ccccc2)[C@H](C(=O)O)N2C(=O)C[C@H]2S1(=O)=O` [Compound 15, sodium 2β-(5-phenyl-1,2,3-triazol-1-yl)methyl-2α-methylpenam-3α-carboxylate 1,1-dioxide], 280 nM.
For the molecule `C[C@]1(Cn2nnc(COCc3ccccc3)c2COCc2ccccc2)[C@H](C(=O)O)N2C(=O)C[C@H]2S1(=O)=O` [Compound 49, 2β-(4,5-dibenzyloxymethyl-1,2,3-triazol-1-yl)methyl-2α-methylpenam-3α-carboxylic acid 1,1-dioxide], the IC50 is 1500 nM.
For the molecule `C[C@]1(Cn2nnc(-c3ccccc3)c2-c2ccccc2)[C@H](C(=O)O)N2C(=O)C[C@H]2S1(=O)=O` [Compound 17, 2β-(4,5-diphenyl-1,2,3-triazol-1-yl)methyl-2α-methylpenam-3α-carboxylic acid 1,1-dioxide], the IC50 came to 270 nM.
For `C[C@]1(Cn2cc(C(F)(F)F)nn2)[C@H](C(=O)O)N2C(=O)C[C@H]2S1(=O)=O` [Compound 19, sodium 2α-methylpenam-2β-(4-trifluoromethyl-1,2,3-triazol-1-yl)methyl-3α-carboxylate 1,1-dioxide] the value was 240 nM; for `CCCCc1cn(C[C@@]2(C)[C@H](C(=O)O)N3C(=O)C[C@H]3S2(=O)=O)nn1` [Compound 8, sodium 2β-(4-n-butyl-1,2,3-triazol-1-yl)methyl-2α-methylpenam-3α-carboxylate 1,1-dioxide], 230 nM.
`CCCCc1cnnn1C[C@@]1(C)[C@H](C(=O)O)N2C(=O)C[C@H]2S1(=O)=O` [Compound 9, sodium 2β-(5-n-butyl-1,2,3-triazol-1-yl)methyl-2α-methylpenam-3α-carboxylate 1,1-dioxide]: the IC50 came to 650 nM.
For the molecule `Cc1nnn(C[C@@]2(C)[C@H](C(=O)O)N3C(=O)C[C@H]3S2(=O)=O)c1C` [Compound 2, sodium 2β-(4,5-dimethyl-1,2,3-triazol-1-yl)methyl-2α-methylpenam-3α-carboxylate 1,1-dioxide], the IC50 stood at 80 nM.
As for `COCc1cnnn1C[C@@]1(C)[C@H](C(=O)O)N2C(=O)C[C@H]2S1(=O)=O` [Compound 22, sodium 2β-(5-methoxymethyl-1,2,3-triazol-1-yl)methyl-2α-methylpenam-3α-carboxylate 1,1-dioxide], the IC50 came to 1800 nM.
`CC(=O)OCc1nnn(C[C@@]2(C)[C@H](C(=O)O)N3C(=O)C[C@H]3S2(=O)=O)c1COC(C)=O` [Compound 47, sodium-2β-(4,5-diacetoxymethyl-1,2,3-triazol-1-yl)methyl-2α-methylpenam-3α-carboxylate 1,1-dioxide]: the IC50 is 2500 nM.
Regarding `Cc1cnnn1C[C@@]1(C)[C@H](C(=O)O)N2C(=O)C[C@H]2S1(=O)=O` [Compound 11, sodium 2β-(5-methyl-1,2,3-triazol-1-yl)methyl-2α-methylpenam-3α-carboxylate 1,1-dioxide], the IC50 was 240 nM.
`CC(=O)c1cn(C[C@@]2(C)[C@H](C(=O)OCc3ccc([N+](=O)[O-])cc3)N3C(=O)C[C@H]3S2(=O)=O)nn1` [Compound 32, p-nitrobenzyl 2β-(4-acetyl-1,2,3-triazol-1-yl)methyl-2α-methylpenam-3α-carboxylate 1,1-dioxide]: the IC50 was determined as 120 nM.
